Several values for one entry are separate records, joined by “and”; a condition that tells them apart may be missing. Equal values may be shown once. Where a name gives a salt, the structure may show the parent alone. Read-outs that look alike come from different tables or passages of the source.

The subject of series [1] is P. berghei NY malaria parasite. The series can be described thus: Antimalarial efficacies in vivo in mice. The text has this: Neither overt toxicity nor behavioral modification was observed due to drug administration in any of these mouse experiments.
Series [2] relates to chloroquine-sensitive P. falciparum (NF54). The series can be described thus: Antimalarial activity in vitro, [3H]hypoxanthine incorporation. It counts as cell-based.
A further series relates to 60 cell line panel. The format is cell-based. The settings on record: leukemia cell line RPM 1-8226, melanoma cell line SK-MEL-5, renal cancer cell line ACHN.
Series [3] relates to Ehrlich ascites tumor (EAT) cells. Conditions: MTT assay; cited from earlier work. A general note: Tetrazolium assays rely on reduction of a dye to a coloured formazan, in cell work by metabolically active cells.
In another series the test system is P. berghei. Conditions: P. berghei-infected mice; cited from earlier work.
In a further series the test system is malaria parasite. The series can be described thus: Efficacy Study Blood Schizontocidal Activity. It counts as in vivo. More on the design: ED90: unit not given here.
The test system of a further series is male CD-1 mice. The series can be described thus: Acute toxicity study, single intraperitoneal injection. Conditions: single ip, male CD-1 mice. Here is the method: Each compound was dissolved in DMSO (Mallinkrodt Lot No. V18H15) to achieve a concentration of 200 mg/ml, and then 3 parts sesame oil (Spectrum Lot No. M10656) was added to make a working concentration of 50 mg/ml for dose administration. Stability, strength, and uniformity of the test articles in the dose formulations were not determined for this study.
Forty-two CD1 male mice purchased from Charles River Laboratories (Wilmington, Mass.) were used in the study. Mice were quarantined for 3 days prior to initiation of the study.
Mice were weighed and randomized into treatment groups on the day prior to the first dose administration. Due to limitations in the amount of available test materials, fewer mice in 1000 mg/kg groups were treated than specified in the protocol. The numbers of animals intended to be used and actually used with each compound at each dose level are shown in the table below; the only differences are in the high-dose groups.
Surviving animals were sacrificed on Day 8 and blood was collected for clinical pathology evaluations.
Mortality and morbidity were checked twice daily on weekdays and once daily on the weekend, see Table VI. Animals were weighed daily and prior to necropsy.

[4] abbreviates: Table I, NF54 strain, read-out: IC50.

As to `C[C@@H]1[C@H](OCc2ccc(C(=O)O)cc2)O[C@@H]2O[C@@]3(C)CC[C@@H]4[C@@H](C)CC[C@@H]1[C@]24OO3` [Artelinic Acid, artelinic acid, reference compound], in series [1] (route IV), the ED50 was 11.0 mg/kg × 4 and 5.6 mg/kg × 4; the ED90 was 25.0 mg/kg × 4 and 43.0 mg/kg × 4; the “% Parasite Supression at 10 mg/kg” value was 54.7% and 42.4%.

What is called IC50 is the concentration that inhibits the measured activity by half. With `C[C@@H]1CC[C@H]2[C@@H](C)C(CC3(CC4OC5O[C@]6(C)CC[C@H]7[C@H](C)CC[C@@H]([C@H]4C)C57OO6)CO3)OC3O[C@]4(C)CCC1C32OO4` (stereo partly drawn) [Compound 6, bis-trioxane epoxide], in series [2] (setting [4]), the IC50 was 2.8 nM. The “growth inhibition in words” value with 60 cell line panel was “less inhibitory”.

With `C[C@@H]1CC[C@H]2[C@@H](C)C(CC(=O)CC3OC4O[C@]5(C)CC[C@H]6[C@H](C)CC[C@@H]([C@H]3C)C46OO5)OC3O[C@]4(C)CCC1C32OO4` (stereo partly drawn) [Compound 7, bis-trioxane ketone], in series [2], the IC50 entry was “below one nM” and the “antimalarial potency in vitro relative to artemisinin” value was 10 times. For the same compound, the IC50 in series [2] (setting [4]) is 0.91 nM. Further, in the series with 60 cell line panel, the “growth inhibition in words” value is “less inhibitory”.

Regarding `CC1CCC2C(C)C(CC(COC(=O)c3ccncc3)CC3OC4OC5(C)CCC6C(C)CCC(C3C)C46OO5)OC3OC4(C)CCC1C32OO4` (stereo not drawn) [Compound 8b, bis-trioxane primary alcohol isonicotinate], in series [2] (setting [4]), the IC50 came to 1.7 nM.

Regarding `CC1CCC2C(C)C(CC(COC(=O)c3ccc[n+]([O-])c3)CC3OC4OC5(C)CCC6C(C)CCC(C3C)C46OO5)OC3OC4(C)CCC1C32OO4` (stereo not drawn) [Compound 15, bis-trioxane primary alcohol nicotinate N-oxide], the IC50 result in series [2] is “sub-nanomolar”; in series [2] (setting [4]), 0.58 nM.

Take `CC1CCC2C(C)C(CC(O)CC3OC4OC5(C)CCC6C(C)CCC(C3C)C46OO5)OC3OC4(C)CCC1C32OO4` (stereo not drawn) [Compound 17, bis-trioxane secondary alcohol]: the IC50 result was “below one nM” in series [2] and 0.66 nM in series [2] (setting [4]).

With `CC1CCC2C(C)C(CC(O)(COC(=O)c3cc[n+]([O-])cc3)CC3OC4OC5(C)CCC6C(C)CCC(C3C)C46OO5)OC3OC4(C)CCC1C32OO4` (stereo not drawn) [Compound 18, bis-trioxane vicinal diol isonicotinate N-oxide], the IC50 entry in series [2] is “sub-nanomolar”; in series [2] (setting [4]), 0.34 nM.

Take `CC1CCC2C(C)C(CC(O)(COCC(=O)O)CC3OC4OC5(C)CCC6C(C)CCC(C3C)C46OO5)OC3OC4(C)CCC1C32OO4` (stereo not drawn) [Compound 21, bis-trioxane β-hydroxy O-acetic acid]: in series [2] (setting [4]), the IC50 worked out at 4.4 nM.

`CC1CCC2C(C)C(CC(O)(COC(=O)c3ccc[n+]([O-])c3)CC3OC4OC5(C)CCC6C(C)CCC(C3C)C46OO5)OC3OC4(C)CCC1C32OO4` (stereo not drawn) [Compound 23, bis-trioxane vicinal diol nicotinate N-oxide]: the IC50 result in series [2] is “sub-nanomolar”; in series [2] (setting [4]) it was 0.4 nM.

`CC1CCC2C(C)C(CC(CC3OC4OC5(C)CCC6C(C)CCC(C3C)C46OO5)OC(=O)c3cc[n+]([O-])cc3)OC3OC4(C)CCC1C32OO4` (stereo not drawn) [Compound 24, bis-trioxane secondary alcohol isonicotinate N-oxide]: the IC50 result in series [2] was “sub-nanomolar”; in series [2] (setting [4]), 0.42 nM.

For the compound `CC1CCC2C(C)C(CC(CC3OC4OC5(C)CCC6C(C)CCC(C3C)C46OO5)OC(=O)c3ccc[n+]([O-])c3)OC3OC4(C)CCC1C32OO4` (stereo not drawn) [Compound 25, bis-trioxane secondary alcohol nicotinate N-oxide], the IC50 result in series [2] is “sub-nanomolar”; in series [2] (setting [4]), 0.31 nM.

For `CCOP(=O)(OCC)OCC(CC1OC2OC3(C)CCC4C(C)CCC(C1C)C24OO3)CC1OC2OC3(C)CCC4C(C)CCC(C1C)C24OO3` (stereo not drawn) [Compound 26, bis-trioxane primary alcohol diethyl phosphoric acid triester], the results for the IC50 result in series [2] and in series [2] (setting [4]) were “sub-nanomolar” and 0.74 nM, respectively.

For the compound `COP(=O)(OC)OCC(CC1OC2OC3(C)CCC4C(C)CCC(C1C)C24OO3)CC1OC2OC3(C)CCC4C(C)CCC(C1C)C24OO3` (stereo not drawn) [Compound 27, bis-trioxane primary alcohol dimethyl phosphoric acid triester], the IC50 entry in series [2] is “sub-nanomolar”; in series [2] (setting [4]) it was 0.48 nM.

In the case of `CC1CCC2C(C)C(OC(=O)CN(C)C)OC3OC4(C)CCC1C32OO4` (stereo not drawn) [Compound 32, α-dihydroartemisinin dimethylglycinate], the 50% inhibitory concentration (IC50) in series [2] (setting [4]) came out at 1.1 nM.

Consider `CC1CCC2C(C)C(OC(=O)c3cc[n+]([O-])cc3)OC3OC4(C)CCC1C32OO4` (stereo not drawn) [Compound 33, α-dihydroartemisinin isonicotinate N-oxide], for which the IC50 in series [2] (setting [4]) was 0.81 nM.

Consider `CC1CCC2C(C)C(CC(O)(CC(=O)O)CC3OC4OC5(C)CCC6C(C)CCC(C3C)C46OO5)OC3OC4(C)CCC1C32OO4` (stereo not drawn) [Compound 35, bis-trioxane tertiary alcohol carboxylic acid], for which the half-inhibitory concentration (IC50) in series [2] (setting [4]) was 2 nM.

Consider `COC(=O)OCC(CC1OC2OC3(C)CCC4C(C)CCC(C1C)C24OO3)CC1OC2OC3(C)CCC4C(C)CCC(C1C)C24OO3` (stereo not drawn) [Compound 36, bis-trioxane primary alcohol methyl carbonate], for which, in series [2] (setting [4]), the IC50 was determined as 1.7 nM.

Take `CCOC(=O)OCC(CC1OC2OC3(C)CCC4C(C)CCC(C1C)C24OO3)CC1OC2OC3(C)CCC4C(C)CCC(C1C)C24OO3` (stereo not drawn) [Compound 37, bis-trioxane primary alcohol ethyl carbonate]: the IC50 in series [2] (setting [4]) was found to be 2.8 nM.

For `COS(=O)(=O)CC(O)(CC1OC2OC3(C)CCC4C(C)CCC(C1C)C24OO3)CC1OC2OC3(C)CCC4C(C)CCC(C1C)C24OO3` (stereo not drawn) [Compound 38, bis-trioxane tertiary alcohol methyl sulfonate], in series [2] (setting [4]), the IC50 was 200 nM.

`CC1CCC2C(C)C(CC(O)(CC3OC4OC5(C)CCC6C(C)CCC(C3C)C46OO5)CS(=O)(=O)N(C)C)OC3OC4(C)CCC1C32OO4` (stereo not drawn) [Compound 40, bis-trioxane tertiary alcohol N,N-dimethylsulfonamide]: the IC50 result in series [2] is “sub-nanomolar”; in series [2] (setting [4]), 0.73 nM.

On to `CC1CCC2C(C)C(CC3(CC4OC5OC6(C)CCC7C(C)CCC(C4C)C57OO6)COC(=O)O3)OC3OC4(C)CCC1C32OO4` (stereo not drawn) [Compound 41, bis-trioxane vicinal diol cyclic carbonate], for which the IC50 entry in series [2] was “sub-nanomolar”; in series [2] (setting [4]), 0.59 nM.

In the case of `CC1CCC2C(C)C(CC3(CC4OC5OC6(C)CCC7C(C)CCC(C4C)C57OO6)COS(=O)(=O)O3)OC3OC4(C)CCC1C32OO4` (stereo not drawn) [Compound 42, bis-trioxane vicinal diol cyclic sulfate], the IC50 in series [2] (setting [4]) stood at 19 nM.

For the compound `C[C@H]1[C@@H](O[C@H]2O[C@@H]3O[C@@]4(C)CC[C@H]5[C@H](C)CC[C@@H]([C@H]2C)[C@@]35OO4)O[C@@H]2O[C@@]3(C)CC[C@H]4[C@H](C)CC[C@@H]1[C@@]24OO3` [II-7, dihydroartemisinin condensation by-product], in series [3], the IC50 is 1400 nM. Also, in the series with P. berghei, the SD90 was 10 mg/kg.

Turning to `CC1=CO[C@@H]2O[C@]3(C)CC[C@H]4[C@H](C)CC[C@@H]1[C@@]24OO3` [III], in the series on P. berghei, the activity in words result is “inactive”.

Regarding `C[C@H]1[C@H](OC(=O)CCC(=O)[O-])O[C@@H]2O[C@@]3(C)CC[C@H]4[C@H](C)CC[C@@H]1[C@@]24OO3.[Na+]` [Sodium Artesunate, sodium artesunate, reference compound], the ED50 in the series on malaria parasite (Route: IV) was 5 mg/kg; with malaria parasite (Route: PO), 6 mg/kg; in series [1] (route PO), 10.0 mg/kg × 4 and 5.5 mg/kg × 4. Also, the ED90 with malaria parasite (Route: IV) is 40.0; in the series on malaria parasite (Route: PO), 60.0; in series [1] (route PO), 39.0 mg/kg × 4 and 70.0 mg/kg × 4. Further, in series [1] (route PO), the “% Parasite Supression at 10 mg/kg” value is 52.8% and 50.9%. For the same compound, the Mortality result is on record as “No death” with male CD-1 mice (125 mg/kg), 1/3 dead in the series on male CD-1 mice (250 mg/kg) and 3/3 dead with male CD-1 mice (500 mg/kg).

The record behind these values is patent publication US7417156B2, “Orally active, antimalarial, anticancer, artemisinin-derived trioxane dimers” (Johns Hopkins University, priority 2002, dated 2008).
